The values that follow come from patent US5990136A, “Isoxazoline derivatives useful as antimicrobials” (Pharmacia & Upjohn Company, priority 1997, dated 1999).

The test system of assay [1] is Streptococcus Pneumoniae UC ® No. 9912. In words: In vitro antimicrobial activity (MIC, agar dilution, Mueller Hinton agar), S. pneumoniae UC 9912. Type of assay: cell-based. The conditions noted are these: UC9912, 35° C., 18 hours, read-out: Minimum inhibitory concentration (MIC), S. p. 9912. On the procedure: (§1) Antimicrobial activity was tested in vitro using the procedure described in National Committee for Clinical Laboratory Standards. Methods for dilution antimicrobial susceptibility tests for bacteria that grow aerobically are disclosed in the third edition of Approved Standard, NCCLS Document M7-A3, Villanova, Pa., 1993. Minimum inhibitory concentration (MIC) values were determined by an agar dilution method (1) in which the test medium was Mueller Hinton agar (MHA; Difco Laboratories, Detroit, Mich.) supplemented with 1% Supplement C (Difco). Serial two-fold dilutions of each compound were prepared using 1.0 ml volumes of sterile distilled water. To each 1.0 ml aliquot was added 9.0 ml of molten agar medium. The drug-supplemented agar was mixed, poured into 15×100 mm petri dishes, and allowed to solidify and dry at room temperature prior to inoculation. The test cultures were grown aerobically overnight at 35° C. on MHA; streptococcal strains were grown on Trypticase Soy Blood Agar Base EH (Difco) supplemented with 5% defibrinated sheep blood (BBL, Becton Dickinson Company, Cockeysville, Md.). Colonies were harvested with a sterile swab, and cell suspensions were prepared in Trypticase Soy Broth (TSB; Becton Dickinson Company) to equal the turbidity of a 0.5 McFarland standard. A 1:19 dilution of the suspension was made in TSB; this diluted suspension constituted the inoculum for the assay. The plates containing the drug-supplemented agar were inoculated with a 0.001 ml drop of the cell suspensions using a Steers replicator (Melrose Machine Shop, Woodlyn, Pa.), yielding approximately 10^4 -10^5 cells per spot. The plates were incubated aerobically at 35° C. for 18 hours and the MIC was read as the lowest concentration of drug that inhibited visible growth of the organism. The growth of a single colony was considered to be negative.

For assay [2], the system named is Staphylococcus aureus UC ® No. 9213. In words: In vitro antimicrobial activity (MIC, agar dilution, Mueller Hinton agar), S. aureus UC 9213. Type of assay: cell-based. The following applies: UC9213, 35° C., 18 hours, read-out: Minimum inhibitory concentration (MIC), S. a. 9213. The procedure: as §1
The subject of assay [3] is Enterococcus faecalis UC ® No. 9217. In words: In vitro antimicrobial activity (MIC, agar dilution, Mueller Hinton agar), E. faecalis UC 9217. Type of assay: cell-based. The conditions noted are these: UC9217, 35° C., 18 hours, read-out: Minimum inhibitory concentration (MIC), E. f. 9217. On the procedure:
as §1

A further assay deals with S, aureus UC ® No. 9213. The following applies: Antimicrob. Agents Chemother. 1996 and ICAAC 1995 posters; cited from earlier work.

Values after ≈ are worked out from the molar mass of the structure shown.

`COc1ccc(-c2ccc(C3=NOC(CNC(C)=O)C3)cc2)ccc1=O` (racemic) [Example 1, N-[[4,5-Dihydro-3-[4-(4-methoxy-5-oxo-1,3,6-cycloheptatrien-1-yl)phenyl]-5-isoxazolyl]methyl]acetamide]: the values for the MIC in assay [1], in assay [2] and in assay [3] were 1 mg/L (≈ 2.84 µM), 4 mg/L (≈ 11.4 µM) and 4 mg/L (≈ 11.4 µM), respectively.

Turning to `CC(=O)NC[C@H]1CN(c2ccc(N3CCN(C(=O)CO)CC3)c(F)c2)C(=O)O1` [Example U-100592], the “potency of U-100592 versus vancomycin in this animal model” value in the assay on S, aureus UC ® No. 9213 is given as “equipotent to vancomycin”.

On to `COC(=O)N1CC=C(c2ccc(C3=NOC(CNC(C)=O)C3)cc2)CC1` (stereo not shown) [Example 6, Methyl 4-[4-[5-[(acetylamino)methyl]-4,5-dihydro-3-isoxazolyl]phenyl]-3,6-dihydro-1(2H)-pyridinecarboxylate], for which the figures for the MIC in assay [1], in assay [2] and in assay [3] were 4 mg/L (≈ 11.2 µM), 16 mg/L (≈ 44.8 µM) and 16 mg/L (≈ 44.8 µM), respectively.

Turning to `CC(=O)NC[C@H]1CC(c2ccc(C3=CCN(C(=O)CO)CC3)cc2)=NO1` [Example 5, (R)-N-[[4,5-Dihydro-3-[4-[1,2,3,6-tetrahydro-1-(hydroxyacetyl)-4-pyridinyl]phenyl]-5-isoxazolyl]methyl]acetamide], the MIC in assay [1] came to 0.5 mg/L (≈ 1.4 µM); in assay [2], 2 mg/L (≈ 5.6 µM); in assay [3] it was 4 mg/L (≈ 11.2 µM).

Turning to `CC(=O)NCC1CC(c2ccc(C3=CCN(C(C)=O)CC3)cc2)=NO1` (stereo not shown) [Example 7, N-[[4,5-Dihydro-3-[4-[1,2,3,6-tetrahydro-1-(acetyl)-4-pyridinyl]phenyl]-5-isoxazolyl]methyl]acetamide], the MIC is 2 mg/L (≈ 5.86 µM) in assay [1], 8 mg/L (≈ 23.4 µM) in assay [2] and 16 mg/L (≈ 46.9 µM) in assay [3].

Consider `CC(=O)NCC1CC(c2ccc(C3=CCN(C(=O)CO)CC3)cc2)=NO1` (stereo not shown) [Example 4, N-[[4,5-Dihydro-3-[4-[1,2,3,6-tetrahydro-1-(hydroxyacetyl)-4-pyridinyl]phenyl]-5-isoxazolyl]methyl]acetamide], for which the figures for the MIC in assay [1], in assay [2] and in assay [3] were 2 mg/L (≈ 5.6 µM), 4 mg/L (≈ 11.2 µM) and 8 mg/L (≈ 22.4 µM), respectively.

Turning to `CC(=O)NC[C@H]1CC(c2ccc(-c3ccncc3)cc2)=NO1` [Example 8, (R)-N-[[4,5-Dihydro-3-[4-(4-pyridinyl)phenyl]-5-isoxazolyl]methyl]acetamide], the MIC in assay [1] was 0.25 mg/L (≈ 0.846 µM); in assay [2], 1 mg/L (≈ 3.39 µM); in assay [3] it was 2 mg/L (≈ 6.77 µM).
